Consider four compounds from patent publication US3960859A, “21-Deoxydihydroajmaline derivatives” (VEB Arzneimittelwerk Dresden, priority 1975, dated 1976).

One series can be described thus: in vivo. Particulars: for Q: Table 1, ratio not defined in text (equals LD50/ED20). From the text: (§1) In the procedures the term ED20 designates the dose in mg/kg at which only isolated or sporadic ventricular extrasystoles occur.
Series [1] has as its system fibrillation or flutter generated by aconitine. The series is classed as in vivo. Particulars: dog.
The test system of series [2] is aconitine-induced ventricular extrasystoles. Kind of series: Aconitine test procedures carried out in rats (antiarrhythmic activity). Type of series: in vivo.
Description: as §1

For series [3] the following is noted: background statement; cited from earlier work.

Counter-ions that a name gives are not always drawn.

Take `CCC[N+]12[C@H](O)[C@@H](CC)[C@@H]3C[C@H]1[C@@H]1N(C)c4ccccc4[C@]14C[C@H]2[C@@H]3[C@H]4O` [N-Propylajmaline, N-propylajmaline]: the LD50 in the series “in vivo” (Table 1, aconitine test procedures in rats, unit not given) is on record as 1.4. The “undesirable side effects, share of cases” value in series [1] (N-propylajmaline (0.3 mg/kg)) is reported as “at least 30%”. The compound further returned an ED20 in series [2] (aconitine test, rats, dose at which only isolated or sporadic ventricular extrasystoles occur) of 0.17 mg/kg.

Regarding `CCC(C)C1CC2C3N(C)c4ccccc4C34CC(C1C4O)N2CCN1CCCCC1` (stereo not drawn) [Example 3, 4-(β-piperidinoethyldeoxydihydroajmaline-dihydrochloride)], in “in vivo”, the Q is 21.6. For the same compound, the LD50 in the series “in vivo” (rat, in vivo) was 5.4 mg/kg. Also, the side effects result in series [1] (Example 3 (0.6 mg/kg)) is on record as “no side effects”. Also, in series [1] (Example 3 at 0.6 mg/kg compared with N-propylajmaline at 0.3 mg/kg), the “therapeutic effectiveness against aconitine fibrillation or flutter” value is “about the same therapeutic effectiveness as N-propylajmaline administered in a dose of 0.3 mg/kg”. The same compound registered an ED20 in series [2] (Rattus norvegicus) of 0.25 mg/kg.

For the compound `CC[C@H]1[C@@H]2C[C@H]3[C@@H]4N(C)c5ccccc5[C@]45C[C@@H]([C@H]2[C@H]5O)N3[C@@H]1O` [Ajmaline, ajmaline], in “in vivo”, the Q is given as 12.2. Besides, in the series “in vivo” (rat, in vivo), the LD50 came out at 26 mg/kg. Further, the “rhythm regulating / antiarrhythmic activity (in words)” value in series [3] is “valuable antiarhythmic properties”. In series [2] (Rattus norvegicus), this compound registered an ED20 of 2.13 mg/kg.

With `CCC(C)C1CC2NC3CC4(c5ccccc5N(C)C24)C(O)C31` (stereo not shown) [21-deoxydihydroajmaline], the “rhythm regulating / antiarrhythmic activity (in words)” value in series [3] was “rhythm regulating activity is extensively lost”.
